Source: US20210038545A1 (priority 2018, published 2021)

How the values were obtained:
S. pneumoniae [1] = details: IAV (H3N2)-infected mice as printed; acetate from day 2 p.i.; 1×10^3 CFUs at 7 dpi; 30 hrs later; FIG. 4B
S. pneumoniae [2] = details: mouse, in vivo
S. pneumoniae [3] = details: mice colonized with IAV microbiota; 30 hrs after challenge; FIG. 4A
[4] = system: respiratory bacterial (including pneumococcal) and fungal infections; details: Ciarlo et al., 2016; cited from earlier work

Row | Compound | bacterial load in the lung (S. pneumoniae [1]) | bacterial load in the spleen (S. pneumoniae [1]) | bacterial loads in the lung (S. pneumoniae [2]) | bacterial loads in the spleen (S. pneumoniae [2]) | survival rate of double-infected mice (S. pneumoniae [2]) | number of pneumococci in lungs (S. pneumoniae [3]) | systemic dissemination of pneumococci out of the lungs (S. pneumoniae [3]) | protective effect of acetate in Ffa2−/− mice (S. pneumoniae serotype 1; Ffa2−/− mice relative to FFA2-competent mice, FIG. 1B) | number of bacteria in the spleen (S. pneumoniae serotype 1; acetate 200 mM drinking water for five days before 1×10^6 CFUs i.n., 30 hours after challenge, FIG. 1A lower panel) | number of bacteria in the lungs (S. pneumoniae serotype 1; acetate 200 mM drinking water for five days before 1×10^6 CFUs i.n., 30 hours after challenge, vs vehicle, FIG. 1A upper panel) | modulation of host defenses against respiratory bacterial and fungal infections [4]
1 | CC(=O)O [acetate] | significant lower | significant lower | significantly reduced | significantly reduced | significant enhancement | lower number | lowered | significantly reduced | lowered | significantly reduced | –
2 | CCC(=O)O [propionate] | – | – | – | – | – | – | – | – | – | – | failed to modulate
